Measured values reported in ChEMBL document CHEMBL4665905, “2-Amino-N-heteroaryl-nicotimamides as Na1.8 Inhibitors” (ACS Med Chem Lett, 2020).

Target: Sodium channel protein type 10 subunit alpha (Homo sapiens, UniProt Q9Y5Y9)
Test: Inhibition of human Nav1.8 expressed in HEK293 cells by whole cell patch clamp assay
Format: cell-based

Chain of Sodium channel protein type 10 subunit alpha (Q9Y5Y9 whole entry): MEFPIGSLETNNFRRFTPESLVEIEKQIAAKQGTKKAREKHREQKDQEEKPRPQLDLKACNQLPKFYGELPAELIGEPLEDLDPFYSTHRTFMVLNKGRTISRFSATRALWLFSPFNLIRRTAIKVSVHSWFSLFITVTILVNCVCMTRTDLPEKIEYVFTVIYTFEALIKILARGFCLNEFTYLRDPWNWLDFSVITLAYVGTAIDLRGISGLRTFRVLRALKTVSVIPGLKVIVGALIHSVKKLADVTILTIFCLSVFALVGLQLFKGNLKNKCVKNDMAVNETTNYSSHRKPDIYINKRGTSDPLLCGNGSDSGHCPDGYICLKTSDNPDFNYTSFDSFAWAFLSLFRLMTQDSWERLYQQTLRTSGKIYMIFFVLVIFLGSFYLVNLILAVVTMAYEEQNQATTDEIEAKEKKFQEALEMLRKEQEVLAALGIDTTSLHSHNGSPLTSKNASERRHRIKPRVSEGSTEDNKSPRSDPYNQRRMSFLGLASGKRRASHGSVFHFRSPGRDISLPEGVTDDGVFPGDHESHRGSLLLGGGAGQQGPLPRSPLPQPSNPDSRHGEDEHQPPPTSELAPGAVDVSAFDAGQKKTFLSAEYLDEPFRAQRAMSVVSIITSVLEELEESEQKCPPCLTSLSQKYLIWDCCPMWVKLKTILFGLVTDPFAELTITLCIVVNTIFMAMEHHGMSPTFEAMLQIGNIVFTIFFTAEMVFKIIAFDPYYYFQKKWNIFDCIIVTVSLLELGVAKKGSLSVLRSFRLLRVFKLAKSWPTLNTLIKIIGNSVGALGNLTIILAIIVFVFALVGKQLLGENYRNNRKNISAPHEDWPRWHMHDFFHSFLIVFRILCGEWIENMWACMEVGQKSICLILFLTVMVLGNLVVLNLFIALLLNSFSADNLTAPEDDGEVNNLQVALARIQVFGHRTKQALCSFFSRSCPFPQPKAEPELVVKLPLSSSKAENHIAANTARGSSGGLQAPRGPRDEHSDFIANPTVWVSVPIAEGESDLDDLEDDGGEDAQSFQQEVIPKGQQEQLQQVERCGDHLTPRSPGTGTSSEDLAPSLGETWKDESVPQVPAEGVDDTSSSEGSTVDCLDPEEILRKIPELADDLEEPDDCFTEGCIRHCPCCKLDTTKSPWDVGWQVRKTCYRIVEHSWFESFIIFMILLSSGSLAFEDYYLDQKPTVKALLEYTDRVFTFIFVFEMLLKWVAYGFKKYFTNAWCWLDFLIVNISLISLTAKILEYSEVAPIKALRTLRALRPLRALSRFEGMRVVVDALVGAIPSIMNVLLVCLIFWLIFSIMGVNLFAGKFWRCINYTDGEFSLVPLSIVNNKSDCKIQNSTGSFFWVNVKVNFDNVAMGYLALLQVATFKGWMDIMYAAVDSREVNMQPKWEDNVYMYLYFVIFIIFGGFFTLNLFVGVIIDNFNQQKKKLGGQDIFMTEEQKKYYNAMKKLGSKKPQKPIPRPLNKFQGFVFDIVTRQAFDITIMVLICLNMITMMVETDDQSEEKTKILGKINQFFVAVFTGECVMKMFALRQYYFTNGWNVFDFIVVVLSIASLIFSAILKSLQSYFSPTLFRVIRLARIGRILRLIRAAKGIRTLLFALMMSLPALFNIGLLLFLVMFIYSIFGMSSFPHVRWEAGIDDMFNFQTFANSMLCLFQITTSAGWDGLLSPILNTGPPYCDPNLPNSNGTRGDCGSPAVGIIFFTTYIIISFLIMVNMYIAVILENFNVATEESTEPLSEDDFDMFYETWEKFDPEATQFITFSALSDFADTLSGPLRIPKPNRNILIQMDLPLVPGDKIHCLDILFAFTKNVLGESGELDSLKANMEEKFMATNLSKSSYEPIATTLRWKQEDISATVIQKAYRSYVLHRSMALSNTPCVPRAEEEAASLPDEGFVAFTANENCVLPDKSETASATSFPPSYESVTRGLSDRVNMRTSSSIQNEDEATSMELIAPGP

- IC50: 3.9 nM
SMILES: NS(=O)(=O)c1cc(NC(=O)c2cc(Cl)cnc2N2CCCC(F)(F)CC2)ccn1
